Assay results: patent US11976092B2, “RNA nanostructures, methods of making, and uses thereof” (Ohio State Innovation Foundation, priority 2018, dated 2024)

Tests used:
FIG. 31B = experiment: FIG. 31B
From the text: Table printed on a drawing sheet, FIG. 31B
The patent's description of the figure: FIGS. 31A and 31B show enzymatic stability of branched 3WJs modular RNA motifs. FIG. 31A. Serum degradation curve. FIG. 31B. Half life of 3WJs in 50% serum.
FIGS. 29A to 31B show design (FIGS. 29A and 29B), thermal stability (qPCR & TGGE, FIGS. 30A to 30C), and enzymatic stability (serum stability assay, FIGS. 31A and 31B) of branched 3WJs with different core and helix.

[1] = Apparent hydrodynamic diameter by DLS (Zetasizer nano-ZS); assay type: physicochemical; conditions: 25° C.
From the text: The data was obtained from three independent measurements.

KB cells = experiment: FITC Annexin V / PI apoptosis assay (FACS); assay type: cell-based, Human; conditions: 1 μM, 48 hr treatment
Experimental: FITC Annexin V Apoptosis Detection Kit (BD Pharmingen) and Caspase-3 Assay Kit (BD Pharmingen) were used as previously reported to study cell apoptosis induced by pRNA-3WJ-PTX micelle treatment. For FITC Annexin V staining assay, KB cells were seeded in 12-well plates overnight. […] The controls include Paclitaxel, pRNA-3WJ micelles, and pRNA-3WJ. According to manufacturer instructions, 48 hr after incubation with the RNA micelles, KB cells were trypsinized to single cell suspension. After two PBS washes, the cells were resuspended in 100 μL 1× Annexin V-FITC binding buffer. Then 5 μL AnnexinV-FITC and 5 μL propidium iodide (PI) were added into each sample and incubated at room temperature for 25 min. The samples were finally added to a flow tube which contained 200 μL 1× binding buffer for FACS analysis within 1 hr.

Substance: Phi29-Mod: 3WJ modular RNA motif, SEQ ID NOs:19-21 (chain 1 AUUCGCUGUGUGGUAGUG; chain 2 CACUACCACUUUGUCCUACG; chain 3 CGUAGGACCAGCGAAU; further chemistry not given here)
- t1/2 (FIG. 31B): 24 h

Substance: pRNA-3WJ: phi29 pRNA three-way junction scaffold of a3WJ, b3WJ, c3WJ (SEQ ID NO:16-18), without lipophilic and therapeutic modules (chain 1 UUGCCAUGUGUAUGUGGG; chain 2 CCCACAUACUUUGUUGAUCC; chain 3 GGAUCAAUCAUGGCAA; 2'-fluoro at CU, RNA at AG, backbone not given here)
- average hydrodynamic diameter [1]: 7.466±1.215 nm
- cells undergoing apoptosis (KB cells): 3.7%
